Measurements published in patent US12252524B2, “GIP/GLP1 co-agonist compounds” (Eli Lilly and Company, priority 2018, dated 2025).
Numbered stars: 1 amine (or outer) side, 2 acyl side, 3 side chain; on linkers, the order of the positions; unused ones are H or OH. Square brackets hold non-standard residues; d marks the D form. Side chains are listed from the residue outwards. Peptide text beside a SMILES is read from it. * marks the point of attachment. C20 diacid = O=C(O)CCCCCCCCCCCCCCCCCCC(=O)*; C18 diacid = O=C(O)CCCCCCCCCCCCCCCCC(=O)*; γGlu = O=C(O)[C@H](CCC(=O)[*:2])N[*:1]; αMeL = CC(C)C[C@](C)(N)C(=O)O; AEEA = NCCOCCOCC(=O)O; Aib = CC(C)(N)C(=O)O

Legend:
human GLP-1R [1] = target: T1, human GLP-1R (Homo sapiens, UniProt P43220); experiment: [125I]-GLP-1 binding (SPA), human GLP-1 receptor; design: expressed in transfected cells; crude membranes; settings: read-out: hGLP1R Ki, (nM) (SEM, n)
T1 sequence (P43220 24-463): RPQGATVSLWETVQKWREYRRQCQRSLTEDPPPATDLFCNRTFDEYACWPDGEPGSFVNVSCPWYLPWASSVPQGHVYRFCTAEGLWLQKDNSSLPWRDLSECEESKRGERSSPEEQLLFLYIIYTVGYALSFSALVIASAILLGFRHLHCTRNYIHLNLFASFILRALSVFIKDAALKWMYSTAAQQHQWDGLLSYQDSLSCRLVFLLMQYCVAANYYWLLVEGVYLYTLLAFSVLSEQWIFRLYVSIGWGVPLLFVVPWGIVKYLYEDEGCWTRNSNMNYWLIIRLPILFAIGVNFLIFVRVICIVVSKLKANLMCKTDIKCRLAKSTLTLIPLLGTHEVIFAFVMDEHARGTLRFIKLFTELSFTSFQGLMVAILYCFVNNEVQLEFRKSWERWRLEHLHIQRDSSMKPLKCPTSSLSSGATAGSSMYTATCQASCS
How it was run: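 Membranes: hypotonic lysis (50 mM Tris HCl, pH 7.5, protease inhibitors), Potter-Elvehjem homogenization, high-speed pellet (35000×g 1 h or 25000×g 30 min, 4° C.). Buffer: 25 mM HEPES pH 7.4, 2.5 mM CaCl2, 1 mM MgCl2. Four-parameter IC50 fit; Ki as geometric mean ± SEM.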

[2] = target: T2, gastric inhibitory peptide receptor (GIPR) (Homo sapiens, UniProt P48546); experiment: cAMP pharmacological functional assay in presence of casein, hGIPR; format: cell-based; settings: HEK293 cells expressing hGIPR, 0.1% Casein, geometric mean; read-out: hGIPR cAMP Rel EC50 nM (SEM, n)
T2 sequence (P48546 22-466): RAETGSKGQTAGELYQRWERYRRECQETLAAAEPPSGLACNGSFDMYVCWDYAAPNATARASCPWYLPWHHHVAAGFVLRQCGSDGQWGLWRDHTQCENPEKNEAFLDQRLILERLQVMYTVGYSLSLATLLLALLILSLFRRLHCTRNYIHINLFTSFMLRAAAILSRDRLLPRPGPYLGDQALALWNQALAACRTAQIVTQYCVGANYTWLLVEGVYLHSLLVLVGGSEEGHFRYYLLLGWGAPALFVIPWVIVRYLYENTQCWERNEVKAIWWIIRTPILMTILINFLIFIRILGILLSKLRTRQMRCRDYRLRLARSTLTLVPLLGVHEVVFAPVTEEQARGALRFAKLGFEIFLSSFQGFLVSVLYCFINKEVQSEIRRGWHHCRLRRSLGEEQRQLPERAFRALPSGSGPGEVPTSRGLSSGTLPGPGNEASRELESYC

human GLP-1R [3] = target: T1, human GLP-1R; experiment: GLP-1R HEK293 cell membrane [35S]GTPγS binding assay; format: biochemical; design: expressed in transfected cells; host or cells: HEK293 cells expressing human GLP-1R; membranes; settings: HEK293 cell membranes expressing human GLP-1R, [35S]GTPγS binding; read-out: hGLP1R GTPgS Rel EC50 nM (SEM, n)
Method: The GLP-1 receptor is a G-protein coupled receptor that increases GTP-bound Gas upon ligand induced receptor activation. The potency of peptides to stimulate-GLP-1R induced activation of Gac is determined using preparations of purified membranes from HEK293 cells expressing the human GLP-1R. […] The test peptides are solubilized in DMSO and diluted in reaction buffer containing 5 μg of membrane in 20 mM HEPES pH 7.4, 50 mM NaCl, 5 mM MgCl2, 40 μg/ml saponin, 0.1% BSA, and […] ^35S-labeled GTPTS for 30 minutes at room temperature. Reactions are terminated by addition of 0.2% Nonidet β-40 detergent containing rabbit anti-Gas polyclonal antibody and 0.5 mg of anti-rabbit polyvinyltoluene beads. Mixtures are developed for 30 minutes, centrifuged at 80×g for 10 minutes, and counted for 1 minute/well using a MicroBeta TriLux instrument. Peptide concentration-response curves are fit to a four-parameter logistic model to calculate potency as an EC50.

[4] = target: human GLP-1 receptor (GLP-1R) (Homo sapiens, UniProt P43220); experiment: cAMP pharmacological functional assay in presence of casein, hGLP-1R; format: cell-based; settings: HEK293 cells expressing hGLP-1R, 0.1% Casein, geometric mean; read-out: hGLP1R cAMP Rel EC50 nM (SEM, n)
Sequence of human GLP-1 receptor (GLP-1R) (P43220 24-463): as the sequence (P43220 24-463) above

human Gcg receptor = target: T3, human Gcg receptor (Homo sapiens, UniProt P47871); experiment: [125I]-Glucagon binding (SPA), human Gcg receptor; settings: read-out: hGLcgR Ki, nM (SEM, n)
T3 construct: expressed in transfected cells; crude membranes
T3 sequence (P47871 26-477): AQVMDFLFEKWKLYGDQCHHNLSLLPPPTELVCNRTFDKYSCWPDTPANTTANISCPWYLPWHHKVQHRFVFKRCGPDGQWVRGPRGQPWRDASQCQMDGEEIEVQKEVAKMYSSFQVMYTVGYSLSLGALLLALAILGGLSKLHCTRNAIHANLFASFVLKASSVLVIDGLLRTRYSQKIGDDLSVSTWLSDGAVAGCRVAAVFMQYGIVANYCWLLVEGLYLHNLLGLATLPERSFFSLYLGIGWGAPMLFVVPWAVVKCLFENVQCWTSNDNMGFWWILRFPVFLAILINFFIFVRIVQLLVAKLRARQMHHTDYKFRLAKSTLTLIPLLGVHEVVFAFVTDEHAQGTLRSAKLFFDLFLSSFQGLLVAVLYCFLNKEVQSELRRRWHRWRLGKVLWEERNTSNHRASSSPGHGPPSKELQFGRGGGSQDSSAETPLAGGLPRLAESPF
How it was run: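 Crude membranes from cells expressing the receptor, prepared by hypotonic lysis in 50 mM Tris HCl pH 7.5 with protease inhibitors, homogenization and differential centrifugation, were used in a WGA-bead SPA. Binding buffer: 25 mM HEPES pH 7.4, 2.5 mM CaCl2, 1 mM MgCl2, bacitracin, Tween-20.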

human GIP receptor = target: T4, human GIP receptor (Homo sapiens, UniProt P48546); experiment: [125I]-GIP binding (SPA), human GIP receptor; settings: read-out: hGIPR Ki, nM (SEM, n)
T4 construct: expressed in transfected cells; crude membranes
T4 sequence (P48546 22-466): T2 sequence (P48546 22-466)

| Structure (SMILES) | Ki (human GLP-1R [1]) [nM] | EC50 [2] [nM] | EC50 (human GLP-1R [3]) [nM] | EC50 [4] [nM] | Ki (human Gcg receptor) [nM] | Ki (human GIP receptor) [nM] |
| --- | --- | --- | --- | --- | --- | --- |
| CC[C@H](C)[C@H](NC(=O)[C@H](CC(C)C)NC(=O)[C@H](Cc1ccc(O)cc1)NC(=O)[C@H](CCC(=O)O)NC(=O)[C@@H](NC(=O)[C@H](Cc1ccccc1)NC(=O)[C@H](C)NC(=O)C(C)(C)NC(=O)[C@H](CCC(N)=O)NC(=O)[C@H](C)NC(=O)[C@H](CCCCNC(=O)COCCOCCNC(=O)COCCOCCNC(=O)CC[C@H](NC(=O)CCCCCCCCCCCCCCCCC(=O)O)C(=O)O)NC(=O)[C@H](CCC(=O)O)NC(=O)[C@H](CC(=O)O)NC(=O)[C@H](CC(C)C)NC(=O)[C@](C)(CC(C)C)NC(=O)[C@@H](NC(=O)[C@H](CO)NC(=O)[C@H](Cc1ccc(O)cc1)NC(=O)[C@H](CC(=O)O)NC(=O)[C@H](CO)NC(=O)[C@@H](NC(=O)[C@H](Cc1ccccc1)NC(=O)[C@@H](NC(=O)CNC(=O)[C@H](CCC(=O)O)NC(=O)C(C)(C)NC(=O)[C@@H](N)Cc1ccc(O)cc1)[C@@H](C)O)[C@@H](C)O)[C@@H](C)CC)[C@@H](C)CC)C(=O)N[C@@H](CCC(=O)O)C(=O)NCC(=O)NCC(=O)N1CCC[C@H]1C(=O)N[C@@H](CO)C(=O)N[C@@H](CO)C(=O)NCC(=O)N[C@@H](C)C(=O)N1CCC[C@H]1C(=O)N1CCC[C@H]1C(=O)N1CCC[C@H]1C(=O)N[C@@H](CO)C(N)=O [Example 323] (H-Y[Aib]EGTFTSDYSI[αMeL]LDEK([AEEA-AEEA-γGlu-C18 diacid])AQ[Aib]AFIEYLIEGGPSSGAPPPS-NH2) | 1.65 | 0.0251 | 0.79 | 0.0597 | 300 | 0.0516 |
| CC[C@H](C)[C@H](NC(=O)[C@H](CC(C)C)NC(=O)[C@H](Cc1ccc(O)cc1)NC(=O)[C@H](CCC(=O)O)NC(=O)[C@@H](NC(=O)[C@H](Cc1ccccc1)NC(=O)[C@H](C)NC(=O)C(C)(C)NC(=O)[C@H](CCC(N)=O)NC(=O)[C@H](C)NC(=O)[C@H](CCCCNC(=O)COCCOCCNC(=O)COCCOCCNC(=O)CC[C@H](NC(=O)CCCCCCCCCCCCCCCCCCC(=O)O)C(=O)O)NC(=O)[C@H](CCCCN)NC(=O)[C@H](CC(=O)O)NC(=O)[C@H](CC(C)C)NC(=O)[C@](C)(CC(C)C)NC(=O)[C@@H](NC(=O)[C@H](CO)NC(=O)[C@H](Cc1ccc(O)cc1)NC(=O)[C@H](CC(=O)O)NC(=O)[C@H](CO)NC(=O)[C@@H](NC(=O)[C@H](Cc1ccccc1)NC(=O)[C@@H](NC(=O)CNC(=O)[C@H](CCC(=O)O)NC(=O)C(C)(C)NC(=O)[C@@H](N)Cc1ccc(O)cc1)[C@@H](C)O)[C@@H](C)O)[C@@H](C)CC)[C@@H](C)CC)C(=O)N[C@@H](C)C(=O)NCC(=O)NCC(=O)N1CCC[C@H]1C(=O)N[C@@H](CO)C(=O)N[C@@H](CO)C(=O)NCC(=O)N[C@@H](C)C(=O)N1CCC[C@H]1C(=O)N1CCC[C@H]1C(=O)N1CCC[C@H]1C(=O)N[C@@H](CO)C(N)=O [Example 324] (H-Y[Aib]EGTFTSDYSI[αMeL]LDKK([AEEA-AEEA-γGlu-C20 diacid])AQ[Aib]AFIEYLIAGGPSSGAPPPS-NH2) | 0.609 | 0.0374 | 0.475 | 0.0926 | 449 | 0.0278 |
| CC[C@H](C)[C@H](NC(=O)[C@H](CC(C)C)NC(=O)[C@H](Cc1ccc(O)cc1)NC(=O)[C@H](CCC(=O)O)NC(=O)[C@@H](NC(=O)[C@H](Cc1ccccc1)NC(=O)[C@H](C)NC(=O)C(C)(C)NC(=O)[C@H](CCC(N)=O)NC(=O)[C@H](C)NC(=O)[C@H](CCCCNC(=O)COCCOCCNC(=O)COCCOCCNC(=O)CC[C@H](NC(=O)CCCCCCCCCCCCCCCCCCC(=O)O)C(=O)O)NC(=O)[C@H](CCCCN)NC(=O)[C@H](CC(=O)O)NC(=O)[C@H](CC(C)C)NC(=O)[C@H](CC(C)C)NC(=O)[C@@H](NC(=O)[C@H](CO)NC(=O)[C@H](Cc1ccc(O)cc1)NC(=O)[C@H](CC(=O)O)NC(=O)[C@H](CO)NC(=O)[C@@H](NC(=O)[C@](C)(Cc1ccccc1F)NC(=O)[C@@H](NC(=O)CNC(=O)[C@H](CCC(=O)O)NC(=O)C(C)(C)NC(=O)[C@@H](N)Cc1ccc(O)cc1)[C@@H](C)O)[C@@H](C)O)[C@@H](C)CC)[C@@H](C)CC)C(=O)N[C@@H](CCC(=O)O)C(=O)NCC(=O)NCC(=O)N1CCC[C@H]1C(=O)N[C@@H](CO)C(=O)N[C@@H](CO)C(=O)NCC(=O)N[C@@H](C)C(=O)N1CCC[C@H]1C(=O)N1CCC[C@H]1C(=O)N1CCC[C@H]1C(=O)N[C@@H](CO)C(N)=O [Example 325] | 0.475 | 0.0301 | 0.414 | 0.0586 | 13 | 0.0209 |
| CC[C@H](C)[C@H](NC(=O)[C@H](CC(C)C)NC(=O)[C@H](Cc1ccc(O)cc1)NC(=O)[C@H](CCC(=O)O)NC(=O)[C@@H](NC(=O)[C@H](Cc1ccccc1)NC(=O)[C@H](C)NC(=O)C(C)(C)NC(=O)[C@H](CCC(N)=O)NC(=O)[C@H](C)NC(=O)[C@H](CCCCNC(=O)COCCOCCNC(=O)COCCOCCNC(=O)CC[C@H](NC(=O)CCCCCCCCCCCCCCCCCCC(=O)O)C(=O)O)NC(=O)[C@H](CCCCN)NC(=O)[C@H](CC(=O)O)NC(=O)[C@H](CC(C)C)NC(=O)[C@H](CC(C)C)NC(=O)[C@@H](NC(=O)[C@H](CO)NC(=O)[C@H](Cc1ccc(O)cc1)NC(=O)[C@H](CC(=O)O)NC(=O)[C@H](CO)NC(=O)[C@@H](NC(=O)[C@H](Cc1ccccc1)NC(=O)[C@@H](NC(=O)CNC(=O)[C@H](CCC(=O)O)NC(=O)C(C)(C)NC(=O)[C@@H](N)Cc1ccccc1)[C@@H](C)O)[C@@H](C)O)[C@@H](C)CC)[C@@H](C)CC)C(=O)N[C@@H](CCC(=O)O)C(=O)NCC(=O)NCC(=O)N1CCC[C@H]1C(=O)N[C@@H](CO)C(=O)N[C@@H](CO)C(=O)NCC(=O)N[C@@H](C)C(=O)N1CCC[C@H]1C(=O)N1CCC[C@H]1C(=O)N1CCC[C@H]1C(=O)N[C@@H](CO)C(N)=O [Example 326] (H-F[Aib]EGTFTSDYSILLDKK([AEEA-AEEA-γGlu-C20 diacid])AQ[Aib]AFIEYLIEGGPSSGAPPPS-NH2) | 2.92 | 0.0754 | 0.663 | 0.0369 | 207 | 0.251 |
| CC[C@H](C)[C@H](NC(=O)[C@H](CC(C)C)NC(=O)[C@H](Cc1ccc(O)cc1)NC(=O)[C@H](CCC(=O)O)NC(=O)[C@@H](NC(=O)[C@H](Cc1ccccc1)NC(=O)[C@H](C)NC(=O)C(C)(C)NC(=O)[C@H](CCC(N)=O)NC(=O)[C@H](C)NC(=O)[C@H](CCCCNC(=O)COCCOCCNC(=O)COCCOCCNC(=O)CC[C@H](NC(=O)CCCCCCCCCCCCCCCCC(=O)O)C(=O)O)NC(=O)[C@H](CCCCN)NC(=O)[C@H](CC(=O)O)NC(=O)[C@H](CC(C)C)NC(=O)[C@](C)(CC(C)C)NC(=O)[C@@H](NC(=O)[C@H](CO)NC(=O)[C@H](Cc1ccc(O)cc1)NC(=O)[C@H](CC(=O)O)NC(=O)[C@H](CO)NC(=O)[C@@H](NC(=O)[C@H](Cc1ccccc1)NC(=O)[C@@H](NC(=O)CNC(=O)[C@H](CCC(=O)O)NC(=O)C(C)(C)NC(=O)[C@@H](N)Cc1ccccc1)[C@@H](C)O)[C@@H](C)O)[C@@H](C)CC)[C@@H](C)CC)C(=O)N[C@@H](CCC(=O)O)C(=O)N[C@@H](C)C(=O)NCC(=O)N1CCC[C@H]1C(=O)N[C@@H](CO)C(=O)N[C@@H](CO)C(=O)NCC(=O)N[C@@H](C)C(=O)N1CCC[C@H]1C(=O)N1CCC[C@H]1C(=O)N1CCC[C@H]1C(=O)N[C@@H](CO)C(N)=O [Example 328] (H-F[Aib]EGTFTSDYSI[αMeL]LDKK([AEEA-AEEA-γGlu-C18 diacid])AQ[Aib]AFIEYLIEAGPSSGAPPPS-NH2) | 3.98 | 0.0965 | 0.481 | 0.117 | > 1450 | 0.136 |
